Measured values taken from a melting point compilation (Tetko et al.; mined from patent text by program, amines drawn as free bases though some values may be those of a salt).

Point of comparison: `NNC(=O)CCCCCCCCOC1OC(CO)C(O)C(O)C1O` (stereo not drawn), melting point 194 °C. Against it:
- OC1(c2ccc(F)cc2)N=C2SCCN2C1c1ccc(F)cc1 (stereo not drawn) — lower, 159 to 160 °C
- COC(=O)[C@H](O)[C@@H](NC(=O)OC(C)(C)C)c1ccccc1 — lower, 130 to 132 °C
- CC(=O)Nc1ccc(-c2c(NC(C)=O)n(C)c3ccccc23)cc1 — higher, 234 to 237 °C
- CC(C)(CO)NS(=O)(=O)c1cc(NC(=O)c2cnn3c(C(F)(F)F)cc(-c4ccc(C(F)(F)F)c(Cl)c4)nc23)c(Cl)s1 — higher, 254 °C
- Cc1cccc(Sc2ccc3c(c2)CCC2N(C)C(=O)CCC32C)c1 (single isomer, unassigned; (+)) — lower, 103 to 104 °C
- O=Cc1cc(O)ccc1-c1cccc(C(F)(F)F)c1 — lower, 100 to 102 °C
- CCCCCCCCCCCCCCCCCCNC(=O)c1cc(O)cc(O)c1 — lower, 114 to 117 °C
- C=CCc1ccc2c(c1O)CCC(=O)N2c1ccccc1 — lower, 177 to 178 °C
- O=C(c1cc(-c2ccccc2)c(=O)n2c1-c1ccccc1C2)N1CCSCC1 — higher, 266 to 268 °C
- CCn1c(C(F)(F)F)nn(C2=CCC(F)(C(N)=S)C(N)=C2)c1=O (stereo not drawn) — lower, 161 °C
- O=C1c2ccccc2CN1C1CCN(c2ccc(Cc3ccccc3)cc2)CC1 — lower, 151 to 155 °C
- CCC(=O)N(CC)c1cccc(-c2ccc3nnc(N)n3n2)c1 — higher, 199 to 200 °C
- CC(Oc1ccc(Cl)cc1)c1ccnc2ncnn12 (stereo not drawn) — lower, 98 to 99 °C
- O=C(O)C1(c2ccccc2)Cc2ccccc2C1 — not separable, 193 to 195 °C
- CC(=O)N[C@@H]1CN2C(=O)N(c3cc(Cl)nc(Cl)c3)C(=O)[C@@]2(Cc2ccc(OC(F)(F)F)cc2)C1 — lower, 127 °C
- CCCCCc1cnc(N2CCC(c3ccc(COc4ccc(S(C)(=O)=O)cc4)nc3)CC2)nc1 — lower, 154 to 157 °C
- CCC1c2cccn2-c2ccc(F)cc2N1C(=O)c1cccc(O)c1 (stereo not drawn) — lower, 115 to 117 °C
- COc1ccc2c(c1)C(C(=O)N(Cc1ccc(C#N)cc1)c1ccc(C(C)C)cc1)CCC2 (stereo not drawn) — lower, 137 to 138 °C
- CC(C)Oc1nsc(N)c1C#N — lower, 146 to 148 °C
- CC(C)OC(=O)C1C(=S)NCC1C (stereo not drawn) — lower, 41 to 44 °C
- COC(=O)c1ncn(C2OC(COC(=O)c3ccccc3)C(OC(=O)c3ccccc3)C2OC(=O)c2ccccc2)n1 (stereo not drawn) — lower, 137 to 139 °C
- COCCn1nc(CC(C)C)c2cn(Cc3cccc4ccccc34)cc2c1=O — lower, 96 to 98 °C
- CN1c2ccc(C=C3SC(=O)NC3=O)cc2CCC1Cc1ccccc1 (stereo not drawn) — higher, 214 to 217 °C
- CCCc1c(OCCCSc2nc3ccccc3[nH]2)ccc(C(C)=O)c1O — lower, 149 to 150 °C
- CCOC(=O)NC(=N)c1ccc(N2CCN(c3ccc(CCC(=O)OC)cc3)S2(=O)=O)cc1 — higher, > 275 °C
- Cc1cc2c3c(c1)c(=O)c(C(=O)O)cn3C1CCCCC21 (stereo not drawn) — lower, 188 to 190 °C
- O=C(O)CCC(=O)Nc1ccc2[nH]c(=O)c3ccccc3c2c1 — higher, 224 to 228 °C
- CC(C)(C)c1cc(C(=O)c2ccc(O)cc2O)cc(C(C)(C)C)c1O — lower, 192 to 193 °C
- COC(=O)c1ccc(Cl)nc1OC — lower, 68 to 69 °C
- O=C(N[C@H](Cc1ccccc1C(F)(F)F)[C@@H](O)c1ccc(F)cc1)c1ccc(F)c2ccccc12 (racemic) — higher, 200 to 201 °C
- COc1cc(OC)c(-c2ccccc2)nn1 — lower, 53 to 54 °C
- CCOC(=O)c1ccc(OCC(=O)O)cc1 — lower, 129 to 130 °C
- C[C@H]1C=CC(S(=O)(=O)c2ccccc2)=C[C@H](C)[C@H]1O[Si](C)(C)C(C)(C)C — lower, 81.6 to 83.6 °C
- CC(C)(C)S(=O)(=O)N1C[C@@H](F)C[C@@H]1c1cc(F)cc(C#N)c1 — lower, 182 to 184 °C
- CC(C)(C)c1cc(CCc2cc(F)cc(F)c2NC(=O)NCC(C)(C)c2ccc(Cl)c(Cl)c2)cc(C(C)(C)C)c1O — lower, 159 to 160 °C
- Cc1cccc(C2OCC(OCc3ccccc3)CO2)c1 (stereo not drawn) — lower, 68 to 70 °C
- Cc1cccc(NC(=O)c2ccc(C(=O)N3Cc4ccccc4Cc4ccccc43)cc2)c1C — higher, 248 to 251 °C
